Several values for one entry are separate records, joined by “and”; a condition that tells them apart may be missing. Identical values can stand only once.
How the values were obtained:
[1] = tested on: C. difficile; assay: Synergistic photodynamic bactericidal activity (PDT with UVA), colony-forming units; format: cell-based, Clostridium difficile (KCTC 5009); conditions: for Log10 CFU/mL (mean ± SD, n = 3): UVA
Procedure: The standard strain of Clostridium difficile was provided by Korean Collection for Type Cultures (C. difficile, KCTC 5009). C. difficile was cultured at 37° C. in a standard anaerobic condition on Clostridia reinforced agar (Oxoid, Cambridge, CB5 8BZ, UK).
Tetracycline, chitosan (low molecular weight), and ethidium bromide monoazide (EMA) were purchased from Sigma (Sigma Chemical Co., St. Louis, Mo.). A stock solution of tetracycline was prepared in water at a concentration of 10 mg/mL and stored for a maximum of 2 weeks at 4° C. in the dark before use. A stock solution of chitosan (1% w/v) was prepared in 1% acetic acid and used within one month. The light source for UVA was lamp (315-400 nm) for treatment of psoriasis (UV801KL, Waldmann Medical division, Germany). The irradiation procedure was performed in a dark and closed box and C. difficile containing plates were placed at a distance of 10 cm from the light source.
Based on a modification of the method of Tegos (G. P. Tegos, M. R. Hamblin. Phenothiazinium bactericidal photosensitizers are substrates of bacterial multidrug resistance pumps. Antimicrob. Agents Chemother. 50 (2006)196-203.), C. difficile that had been stored at −70° C. was cultured in Clostridial agar medium for 3 days.
After successive subcultures for two days, the cells were collected and suspended in PBS at a concentration of 10^8 cells/mL. The cell suspension was exposed to tetracycline alone at concentrations of 0.05 mg/mL, 0.1 mg/mL, 0.5 mg/mL and 1 mg/mL, or to 0.0125% chitosan containing TC at a concentration of 0.05 mg/mL, 0.1 mg/mL, 0.5 mg/mL and 1 mg/mL for 30 min.
After samples were washed twice with PBS, the bacterial cell suspension was dispensed at a volume of 1000 μL in a plate for irradiation for 5, 10, 20 and 30 min. After irradiation, cells were serially diluted tenfold in PBS to give dilutions of 10^−1 to 10^−8 of the original concentrations, and a 10 μL aliquot of each dilution was spotted on a Clostridial agar plate. After 2 days incubation, the colonies were counted to obtain the number of colony-forming units. C. difficile without treatment with TC, chitosan and light served as the control.

[2] = tested on: C. difficile; assay: EMA-qPCR analysis of C. difficile DNA (16S rRNA gene) to evaluate cell death and DNA damage; format: cell-based, Clostridium difficile (KCTC 5009); conditions: UVA + TC (0.5 mg/mL), UVA irradiation 30 min
[3] = TC 0.05 mg/mL+UVA, after 30 min irradiation
[4] = TC 0.1 mg/mL+UVA, after 30 min irradiation

## CN(C)[C@@H]1C(O)=C(C(N)=O)C(=O)[C@@]2(O)C(O)=C3C(=O)c4c(O)cccc4[C@@](C)(O)[C@H]3C[C@@H]12 [TC, tetracycline]
[1]; 0.05 mg/mL TC, irradiation 0 min
  Log10 CFU/mL (mean ± SD, n = 3): 8.11 ± 0.48 Log10 CFU/mL
[1]; 0.05 mg/mL TC, irradiation 5 min
  Log10 CFU/mL (mean ± SD, n = 3): 8.11 ± 0.78 Log10 CFU/mL
[1]; 0.05 mg/mL TC, irradiation 10 min
  Log10 CFU/mL (mean ± SD, n = 3): 8.13 ± 0.40 Log10 CFU/mL
[1]; 0.05 mg/mL TC, irradiation 20 min
  Log10 CFU/mL (mean ± SD, n = 3): 8.11 ± 0.67 Log10 CFU/mL
[1]; 0.05 mg/mL TC, irradiation 30 min
  Log10 CFU/mL (mean ± SD, n = 3): 7.14 ± 0.33 Log10 CFU/mL
[1]; 0.1 mg/mL TC, irradiation 0 min
  Log10 CFU/mL (mean ± SD, n = 3): 8.03 ± 0.39 Log10 CFU/mL
[1]; 0.1 mg/mL TC, irradiation 5 min
  Log10 CFU/mL (mean ± SD, n = 3): 8.11 ± 0.11 Log10 CFU/mL
[1]; 0.1 mg/mL TC, irradiation 10 min
  Log10 CFU/mL (mean ± SD, n = 3): 8.13 ± 0.53 Log10 CFU/mL
[1]; 0.1 mg/mL TC, irradiation 20 min
  Log10 CFU/mL (mean ± SD, n = 3): 8.11 ± 0.21 Log10 CFU/mL
[1]; 0.1 mg/mL TC, irradiation 30 min
  Log10 CFU/mL (mean ± SD, n = 3): 7.12 ± 0.38 Log10 CFU/mL
[1]; 0.5 mg/mL TC, irradiation 0 min
  Log10 CFU/mL (mean ± SD, n = 3): 8.03 ± 0.48 Log10 CFU/mL
[1]; 0.5 mg/mL TC, irradiation 5 min
  Log10 CFU/mL (mean ± SD, n = 3): 6.02 ± 0.76 Log10 CFU/mL
[1]; 0.5 mg/mL TC, irradiation 10 min
  Log10 CFU/mL (mean ± SD, n = 3): 5.12 ± 0.10 Log10 CFU/mL
[1]; 0.5 mg/mL TC, irradiation 20 min
  Log10 CFU/mL (mean ± SD, n = 3): 5.11 ± 0.27 Log10 CFU/mL
[1]; 0.5 mg/mL TC, irradiation 30 min
  Log10 CFU/mL (mean ± SD, n = 3): 5.11 ± 0.23 Log10 CFU/mL
[1]; 1 mg/mL TC, irradiation 0 min
  Log10 CFU/mL (mean ± SD, n = 3): 8.03 ± 0.39 Log10 CFU/mL
[1]; 1 mg/mL TC, irradiation 5 min
  Log10 CFU/mL (mean ± SD, n = 3): 5.21 ± 0.11 Log10 CFU/mL
[1]; 1 mg/mL TC, irradiation 10 min
  Log10 CFU/mL (mean ± SD, n = 3): 4.11 ± 0.23 Log10 CFU/mL
[1]; 1 mg/mL TC, irradiation 20 min
  Log10 CFU/mL (mean ± SD, n = 3): 4.11 ± 0.21 Log10 CFU/mL
[1]; 1 mg/mL TC, irradiation 30 min
  Log10 CFU/mL (mean ± SD, n = 3): 0 Log10 CFU/mL
[1]; [3]
  decrease of viable cells: 10 times
  viable cells: 1.12×10^7
[1]; [4]
  decrease of viable cells: 10 times
  viable cells: 1.14×10^7
[1]; TC 0.5 mg/mL+UVA, after 5 min irradiation
  viable cells: 1.10×10^6
[1]; TC 0.5 mg/mL+UVA, after 10 min irradiation
  viable cells: 1.12×10^5
[1]; TC 0.5 mg/mL+UVA, after 20 min irradiation
  viable cells: 1.11×10^5
[1]; TC 0.5 mg/mL+UVA, after 30 min irradiation
  viable cells: 1.13×10^5
[1]; TC 1.0 mg/mL+UVA, after 5 min irradiation
  viable cells: 1.21×10^5
[1]; TC 1.0 mg/mL+UVA, after 10 min irradiation
  viable cells: 1.11×10^4
[1]; TC 1.0 mg/mL+UVA, after 20 min irradiation
  viable cells: 1.13×10^4
[1]; TC 1.0 mg/mL+UVA, after 30 min irradiation
  viable cells: 0
[2]
  Ct value (EMA-qPCR, 16S rRNA): 23.026±0.101 and 23.03 ± 0.101
